Experimental data reported in ChEMBL document CHEMBL1150891, “Isolation of 1-carboxymethylnicotinic acid from the marine sponge anthosigmella cf. raromicrosclera As a cysteine protease inhibitor1” (J Nat Prod, 1998).

Target: T1, Papain (Carica papaya, UniProt P00784)
T1 sequence (P00784 whole entry): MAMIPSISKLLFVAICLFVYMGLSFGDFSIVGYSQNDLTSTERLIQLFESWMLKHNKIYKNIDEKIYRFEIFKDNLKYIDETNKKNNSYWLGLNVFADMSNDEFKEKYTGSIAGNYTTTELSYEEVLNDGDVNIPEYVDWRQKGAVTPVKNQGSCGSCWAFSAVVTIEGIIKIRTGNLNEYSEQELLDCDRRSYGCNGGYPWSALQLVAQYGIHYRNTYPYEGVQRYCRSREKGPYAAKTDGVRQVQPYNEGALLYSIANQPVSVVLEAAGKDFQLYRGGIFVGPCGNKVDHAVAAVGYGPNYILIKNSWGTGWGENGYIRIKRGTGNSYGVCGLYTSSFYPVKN
Test: Inhibition of Carica papaya papain

IC50: 442 µM
Compound: O=C([O-])C[n+]1cccc(C(=O)O)c1
